Data: patent US20230113802A1, “COMPOSITION AND METHOD TO PREPARE LONG-ACTING INJECTABLE SUSPENSION CONTAINING MULTIPLE CANCER DRUGS” (University of Washington, priority 2020, published 2023)
Where two headings read alike, the source gives them in different places.

Assay: Pharmacokinetic study of GT in DcNPs compared to CrEL (Example 2), plasma G, T and dFdU
Assay type: in vivo, BALB/c mice
Conditions: for MRT / concentration at 3 h / AUC(0-inf) / C0 / half-life / Vd: female, BALB/c, mouse, plasma; for MRT: read-out: MRT (mean residence time); for concentration at 3 h: intravenous; for C0: read-out: C0 (concentration at time 0, back extrapolated); for half-life: read-out: T1/2,app (converted); for Vd: read-out: Vss; for time over which concentrations in plasma were detected: mice administered GT DcNPs, 48-hour study; for plasma concentration by 24 hours: mice treated with the CrEL control formulation
Excerpt: Drugs extracted from biological matrices such as plasma or tissue homogenates were quantified by a Shimadzu HPLC system coupled to a 3200 QTRAP mass spectrometer (Applied Biosystems, Grand Island, N.Y.). The HPLC system consisted of two Shimadzu LC-20A pumps, a DGU-20A5 degasser, and a Shimadzu SIL-20AC HT autosampler. The mass spectrometer was equipped with an electrospray ionization (ESI) TurbolonSpray source. The system was operated with Analyst software, version 1.5.2 (ABSciex, Framingham, Mass.). Chromatographic separation of G and T was achieved using a Synergi column (100×2.0 mm; 4-μm particle size) (Phenomenex, Torrance, Calif.) with an inline C8 guard column (4.0×2.0 mm) also from Phenomenex. The flow rate was set to 0.5 mL/min with a 5 μl sample injection volume. The mobile phase for separation consisted of pump A (20 mM Ammonium Acetate in water) and B (Reagent Alcohol). […] The needle was washed with isopropanol after each injection. Analytes were monitored using multiple-reaction monitoring (MRM) for positive ions.
Statistical comparisons were performed using 2-sided t-tests with Welch's correction for unequal variances. Significance probability α was set at 0.05. Pharmacokinetic parameters from non-compartmental analysis were calculated using the trapezoidal rule and relevant pharmacokinetic equations shown in Table 3.

[1] = Control (CrEL suspension), 50/5 mg/kg G/T IV, mice
[2] = GT DcNP, 50/5 mg/kg G/T IV, mice
[3] = after GT DcNP dosing, 50/5 mg/kg G/T IV, mice
[4] = after control CrEL dosing, 50/5 mg/kg G/T IV, mice
[5] = iv, 50 mg/kg, Control (CrEL suspension), 50/5 mg/kg G/T IV, mice
[6] = iv, 50 mg/kg, GT DcNP, 50/5 mg/kg G/T IV, mice
[7] = iv, GT DcNP, 50/5 mg/kg G/T IV, mice
[8] = iv, 5 mg/kg, Control (CrEL suspension), 50/5 mg/kg G/T IV, mice
[9] = iv, 5 mg/kg, GT DcNP, 50/5 mg/kg G/T IV, mice
[10] = iv, Control (CrEL suspension), 50/5 mg/kg G/T IV, mice

Nc1ccn([C@@H]2O[C@H](CO)[C@@H](O)C2(F)F)c(=O)n1 [Gemcitabine, 4-amino-1-[(2R,4R,5R)-3,3-difluoro-4-hydroxy-5-(hydroxymethyl)oxolan-2-yl]pyrimidin-2-one]
AUC0 to ∞ Ratio (DcNP to control) (50/5 mg/kg G/T IV, mice): 61.0
C0 Ratio (DcNP to control) (50/5 mg/kg G/T IV, mice): 1.1
Dose/AUC Ratio (DcNP to control) (50/5 mg/kg G/T IV, mice): 0.02
MRT Ratio (DcNP to control) (50/5 mg/kg G/T IV, mice): 45.2
T1/2,app Ratio (DcNP to control) (50/5 mg/kg G/T IV, mice): 8.6
Vss Ratio (DcNP to control) (50/5 mg/kg G/T IV, mice): 0.7
plasma concentration at 3 hours, DcNP times greater than CrEL (50/5 mg/kg G/T IV, mice): 470 times
AUC0 to ∞ Ratio (DcNP to control) (50/5 mg/kg G/T IV, mice, listed as G): 61
AUC0 to ∞ Ratio (DcNP to control) (50/5 mg/kg G/T IV, mice, listed as gemcitabine): 50
Dose/AUC (apparent clearance) [1]: 65.2 mL/h
G to dFdU ratio in plasma at 6 hours (CrEL control dosage form): 0.01
difference in mean residence times of G and T after DcNP administration (GT DcNP): 11.3 fold
Dose/AUC (apparent clearance) [2]: 1.1 mL/h
plasma concentration within 15 minutes (after GT in CrEL control dosage form IV, mice): 12023.5 ng/mL
mean plasma concentration at 3 hours (after control CrEL dosing, 50/5 mg/kg G/T IV, mice, listed as G): 87.3 ng/mL
MRT (50 mg/kg, Control (CrEL suspension), 50/5 mg/kg G/T IV, mice): 0.25 h
concentration at 3 h [3]: 41100 ng/mL
concentration at 3 h [4]: 87.3 ng/mL
AUC(0-inf) [5]: 15300 ng·h/mL
C0 [5]: 165000 ng/mL
half-life [5]: 1.6 h
Vd [5]: 0.0166 L
AUC(0-inf) [6]: 937000 ng·h/mL
C0 [6]: 181000 ng/mL
MRT [6]: 11.3 h
half-life [6]: 13.7 h
Vd [6]: 0.0121 L
half-life [7]: 13.7 h
time over which concentrations in plasma were detected: ≥ 48 h
plasma concentration by 24 hours: fell below the detection limit

CC(=O)O[C@H]1C(=O)[C@@]2(C)[C@H]([C@H](OC(=O)c3ccccc3)[C@]3(O)C[C@H](OC(=O)[C@H](O)[C@@H](NC(=O)c4ccccc4)c4ccccc4)C(C)=C1C3(C)C)[C@]1(OC(C)=O)CO[C@@H]1C[C@@H]2O [Paclitaxel, [(1S,2S,3R,4S,7R,9S,10S,12R,15S)-4,12-diacetyloxy-15-[(2R,3S)-3-benzamido-2-hydroxy-3-phenylpropanoyl]oxy-1,9-dihydroxy-10,14,17,17-tetramethyl-11-oxo-6-oxatetracyclo[11.3.1.0^3,10.0^4,7]heptadec-13-en-2-yl] benzoate]
plasma concentration at 3 hours, DcNP times greater than CrEL (50/5 mg/kg G/T IV, mice): 3.3 times
Dose/AUC (apparent clearance) [1]: 38.3 mL/h
T1/2,app [1]: 1.8 h
Dose/AUC (apparent clearance) [2]: 10.2 mL/h
T1/2,app [2]: 2.0 h
concentration at 3 h [3]: 643 ng/mL
concentration at 3 h [4]: 194 ng/mL
MRT [8]: 1 h
Vd [8]: 0.0356 L
MRT [9]: 1 h
Vd [9]: 0.01 L
AUC(0-inf) [10]: 2610 ng·h/mL
C0 [10]: 17700 ng/mL
AUC(0-inf) [7]: 9810 ng·h/mL
C0 [7]: 13900 ng/mL
time over which concentrations in plasma were detected: ≤ 6 h
plasma concentration by 24 hours: fell below the detection limit
